According to US11420976B2 (priority 2020, dated 2022):

Each compound was assayed on Human RSV-A (“Long” strain) (assay: RSV-A assay (CPE, ATPlite readout in Hep-2 cells)). Settings: human respiratory syncytial virus, 120 h; Hep-2 cells, MOI 0.1, 5-day incubation, ATPlite; read-out: Human RSV-A (“Long” strain) EC50.
Assay type: cell-based
From the text: Hep-2 cells, (originally derived from tumors grown in irradiated-cortisonised weanling rats that had been injected with epidermoid carcinoma tissue from a person's larynx, but later found to be indistinguishable from HeLa cells by PCR DNA analysis), were used for the culturing of genotype A, “Long” strain RSV. Flasks were inoculated with RSV and viral stocks were collected once cytopathic effect (CPE) was greater than 90%. Viral stocks in 25% sucrose media were snap frozen using liquid nitrogen to increase viral stability. Viral stock titers were quantified by tissue culture infectious dose 50% (TCID50) using 8,000 cells per well and 3-fold viral dilutions across a 96-well plate, cultured for 4 days. Viral stock titers were also quantified by a plaque forming unit assay, as described elsewhere.
Following extensive parameter testing, the final assay is run as follows: Hep-2 cells are seeded into the inner 60 wells of a 96-well plate at 8,000 cells per well in a volume of 50 μL using Growth Media (DMEM without phenol red, 1% L-Glut, 1% Penn/Strep, 1% nonessential amino acids, 10% heat-inactivated FBS). 2-fold serial dilutions of control and test compounds are added to the wells in duplicate in a total volume of 25 μL. Viral stock is then added to the wells at a multiplicity of infection (MOI) of 0.1 in a volume of 25 μL, bringing the total volume of each well to 100 μL. The MOI is calculated using the PFU/mL, or TCID50 if unavailable. Each 96-well plate has a control column of 6 wells with cells and virus but no compound (negative control, max CPE), a column with cells but no compound or virus (positive control, minimum CPE), and a column with no cells or virus or compound (background plate/reagent control). The control wells with cells but no virus are given an additional […], of growth media containing an equal quantity of sucrose as those wells receiving the viral stock in order to keep consistent in media and volume conditions. The outer wells of the plate are filled with 125 μL of moat media (DMEM, 1% Penn/Strep) to act as a thermal and evaporative moat around the test wells. Following a 5-day incubation period, the plates are read using ATPlite (50 uL added per well), which quantifies the amount of ATP (a measure of cell health) present in each well. Assay plates are read using the Envision luminometer. […] EC50 ranges are as follows: A<0.2 μM; B≥0.2 μM.

EC50 [nM]	Compound
> 200	N[C@@]1(C(F)(F)F)COc2c1cc([C@@](O)(CNC(=O)c1cc(OC3CC3)c3ncccc3c1)C1COC1)nc2-c1ccc(F)cc1 [Example 58]
> 200	COc1cc(C(=O)NC[C@@](O)(c2cc3c(c(-c4ccc(F)cc4)n2)OC[C@@]3(N)C(F)(F)F)C(F)(F)F)ccc1OC1CC1 [Example 2, N—((R)-2-((R)-3-amino-7-(4-fluorophenyl)-3-(trifluoromethyl)-2,3-dihydrofuro[2,3-c]pyridin-5-yl)-3,3,3-trifluoro-2-hydroxypropyl)-4-cyclopropoxy-3-methoxybenzamide]
> 200	COc1cc(C(=O)NC[C@](O)(c2cc3c(c(-c4ccc(F)cc4)n2)OC[C@@]3(N)C(F)(F)F)C(F)(F)F)ccc1OCCO [Example 31]
> 200	COc1cc(C(=O)NC[C@](O)(c2cc3c(c(-c4ccc(F)cc4)n2)OC[C@@]3(N)C(F)(F)F)C(F)(F)F)nc2ccccc12 [Example 40]
> 200	N[C@@]1(C(F)(F)F)COc2c1cc([C@](O)(CO)CNC(=O)c1cc(OC3CC3)c3ncccc3c1)nc2-c1ccc(F)cc1 [Example 59]
> 200	CC(C)(C)S(=O)(=O)N[C@@]1(C(F)(F)F)COc2c1cc([C@@](C)(O)CNC(=O)c1cc(OC3CC3)c3ncccc3c1)nc2-c1ccc(F)cc1 [Example 45]
> 200	COc1cc(C(=O)NC[C@](O)(c2cc3c(c(-c4ccc(F)cc4)n2)OC[C@@]3(N)C(F)(F)F)C(F)(F)F)cc(F)c1OC1CC1 [Example 39]
> 200	COc1cc(C(=O)NC[C@](O)(c2cc3c(c(-c4ccc(F)cc4)n2)OC[C@@]3(N)C(F)(F)F)C(F)(F)F)ccc1OCC(C)C [Example 36]
> 200	COc1cnc(C(=O)NC[C@](O)(c2cc3c(c(-c4ccc(F)cc4)n2)OC[C@@]3(N)C(F)(F)F)C(F)(F)F)cc1OC [Example 35]
< 200	COc1cc(C(=O)NC[C@](O)(c2cc3c(c(-c4ccc(F)cc4)n2)OC[C@@]3(N)C(F)(F)F)C2CC2)cc2sc(N)nc12 [Example 53, 2-amino-N—((S)-2-((R)-3-amino-7-(4-fluorophenyl)-3-(trifluoromethyl)-2,3-dihydrofuro[2,3-c]pyridin-5-yl)-2-cyclopropyl-2-hydroxyethyl)-4-methoxybenzo[d]thiazole-6-carboxamide]
< 200	N[C@@]1(C(F)(F)F)COc2c1cc([C@@](O)(CNC(=O)c1cc(OC3CC3)c3nc(Cl)ccc3c1)C1CC1)nc2-c1ccc(F)cc1 [Example 59d]
< 200	Nc1nc2ccc(C(=O)NC[C@](O)(c3cc4c(c(-c5ccc(F)cc5)n3)OC[C@@]4(N)C(F)(F)F)C3CC3)cc2s1 [Example 52, 2-amino-N—((S)-2-((R)-3-amino-7-(4-fluorophenyl)-3-(trifluoromethyl)-2,3-dihydrofuro[2,3-c]pyridin-5-yl)-2-cyclopropyl-2-hydroxyethyl)benzo[d]thiazole-6-carboxamide]
> 200	COc1cc(F)c(C(=O)NC[C@](O)(c2cc3c(c(-c4ccc(F)cc4)n2)OC[C@@]3(N)C(F)(F)F)C(F)(F)F)cc1OC [Example 38]
> 200	COc1cc(C(=O)NC[C@](O)(c2cc3c(c(-c4ccc(F)cc4)n2)OC[C@]3(N)C(F)(F)F)C(F)(F)F)ccc1OCCO [Example 33]
> 200	COc1cc(C(=O)NC[C@](C)(O)c2cc3c(c(-c4ccc(F)cc4)n2)OC[C@@]3(NS(=O)(=O)C(C)(C)C)C(F)(F)F)cc2cccnc12 [Example 46]
< 200	Cn1cc2cc(C(=O)NC[C@](O)(c3cc4c(c(-c5ccc(F)cc5)n3)OC[C@@]4(N)C(F)(F)F)C3CC3)cc(F)c2n1 [Example 64]
> 200	N[C@@]1(C(F)(F)F)COc2c1cc([C@@](O)(CNC(=O)c1cc(OC3CC3)c3c(ccc[n+]3[O-])c1)C1CC1)nc2-c1ccc(F)cc1 [Example 59b]
< 200	COC[C@](O)(CNC(=O)c1cc(OC2CC2)c2ncccc2c1)c1cc2c(c(-c3ccc(F)cc3)n1)OC[C@@]2(N)C(F)(F)F [Example 50, N—((S)-2-((R)-3-amino-7-(4-fluorophenyl)-3-(trifluoromethyl)-2,3-dihydrofuro[2,3-c]pyridin-5-yl)-2-hydroxy-3-methoxypropyl)-8-cyclopropoxyquinoline-6-carboxamide]
< 200	Cc1ccc2cc(C(=O)NC[C@](O)(c3cc4c(c(-c5ccc(F)cc5)n3)OC[C@@]4(N)C(F)(F)F)C3CC3)cc(OC3CC3)c2n1 [Example 59e]
< 200	C[C@](O)(CNC(=O)c1cc(OC2CC2)c2ncccc2c1)c1cc2c(c(-c3ccc(F)cc3)n1)OC[C@@]2(N)C(F)(F)F [Example 16, N—((S)-2-((R)-3-amino-7-(4-fluorophenyl)-3-(trifluoromethyl)-2,3-dihydrofuro[2,3-c]pyridin-5-yl)-2-hydroxypropyl)-8-cyclopropoxyquinoline-6-carboxamide]
< 200	Nc1nc2c(F)cc(C(=O)NC[C@](O)(c3cc4c(c(-c5ccc(F)cc5)n3)OC[C@@]4(N)C(F)(F)F)C3CC3)cc2s1 [Example 54, 2-amino-N—((S)-2-((R)-3-amino-7-(4-fluorophenyl)-3-(trifluoromethyl)-2,3-dihydrofuro[2,3-c]pyridin-5-yl)-2-cyclopropyl-2-hydroxyethyl)-4-fluorobenzo[d]thiazole-6-carboxamide]
< 200	COc1cc(C(=O)NC[C@](C)(O)c2cc3c(c(-c4ccc(F)cc4)n2)OC[C@@]3(N)C(F)(F)F)cc2cccnc12 [Example 17, N—((S)-2-((R)-3-amino-7-(4-fluorophenyl)-3-(trifluoromethyl)-2,3-dihydrofuro[2,3-c]pyridin-5-yl)-2-hydroxypropyl)-8-methoxyquinoline-6-carboxamide]
< 200	C[C@](O)(CNC(=O)c1ccc(OC2CC2)c(-c2cccnc2)c1)c1cc2c(c(-c3ccc(F)cc3)n1)OC[C@@]2(N)C(F)(F)F [Example 18, N—((S)-2-((R)-3-amino-7-(4-fluorophenyl)-3-(trifluoromethyl)-2,3-dihydrofuro[2,3-c]pyridin-5-yl)-2-hydroxypropyl)-4-cyclopropoxy-3-(pyridin-3-yl)benzamide]
> 200	COc1cc(C(=O)NC[C@@](O)(c2cc3c(c(-c4ccc(F)cc4)n2)OC[C@]3(N)C(F)(F)F)C(F)(F)F)ccc1OCCO [Example 32]
< 200	COc1cc(C(=O)NC[C@](O)(c2cc3c(c(-c4ccc(F)cc4)n2)OC[C@@]3(N)C(F)(F)F)C2CC2)cc2cn(C)nc12 [Example 55, N—((S)-2-((R)-3-amino-7-(4-fluorophenyl)-3-(trifluoromethyl)-2,3-dihydrofuro[2,3-c]pyridin-5-yl)-2-cyclopropyl-2-hydroxyethyl)-7-methoxy-2-methyl-2H-indazole-5-carboxamide]
> 200	COc1ccc(C(=O)NC[C@](O)(c2cc3c(c(-c4ccc(F)cc4)n2)OC[C@@]3(N)C(F)(F)F)C(F)(F)F)cc1OC [Example 34]

Same assay, conditions: human respiratory syncytial virus, HEp-2, 120 h, read-out: Human RSV-A (“Long” strain) EC50

Compound	EC50 [nM]
COc1cc(C(=O)NC[C@](C)(O)c2cc3c(c(-c4ccc(F)cc4)n2)OC[C@@]3(NC(=N)NC#N)C(F)(F)F)ccc1OC1CC1 [Example 21, N—((S)-2-((R)-3-(3-cyanoguanidino)-7-(4-fluorophenyl)-3-(trifluoromethyl)-2,3-dihydrofuro[2,3-c]pyridin-5-yl)-2-hydroxypropyl)-4-cyclopropoxy-3-methoxybenzamide]	< 200
